Reference: US20230278996A1, “YKL-40 INHIBITORS AND THEIR THERAPEUTIC APPLICATIONS” (Molecure S.A., priority 2022, published 2023)

molecular target: YKL-40 (Homo sapiens (Human), UniProt P36222); assay: YKL-40:4 assay, competitive chitin binding site AlphaScreen; details: competition with biotinylated compound 4 (20 nM), YKL-40-histag 2.5 nM
Sequence (P36222 22-383): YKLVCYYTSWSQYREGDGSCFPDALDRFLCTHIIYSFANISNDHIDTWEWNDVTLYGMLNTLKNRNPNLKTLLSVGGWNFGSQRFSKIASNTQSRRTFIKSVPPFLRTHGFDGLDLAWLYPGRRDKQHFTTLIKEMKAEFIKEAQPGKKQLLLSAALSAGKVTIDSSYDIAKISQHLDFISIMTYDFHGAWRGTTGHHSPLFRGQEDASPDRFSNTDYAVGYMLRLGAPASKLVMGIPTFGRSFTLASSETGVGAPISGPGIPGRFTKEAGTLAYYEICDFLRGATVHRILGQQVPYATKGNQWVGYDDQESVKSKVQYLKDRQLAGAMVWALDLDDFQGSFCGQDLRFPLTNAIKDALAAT

SMILES | IC50 [nM]
Clc1ccc(C[C@H]2COCCN2C2CCN(c3ccccn3)CC2)cc1 [compound 88, (S)-3-(4-chlorobenzyl)-4-(1-(pyridin-2-yl)piperidin-4-yl)morpholine 2,2,2-trifluoroacetate] | 100 to 1000
COC1(C)CCN(C2CCN(c3ccccn3)CC2)[C@@H](Cc2ccc(Cl)cc2)C1 (stereo partly drawn) [compound 91, (2S)-2-(4-chlorobenzyl)-4-methoxy-4-methyl-1′-(pyridin-2-yl)-1,4′-bipiperidine 2,2,2-trifluoroacetate] | < 100
CC1(O)CCN(C2CCN(c3ccccn3)CC2)[C@@H](Cc2ccc(Cl)cc2)C1 (stereo partly drawn) [compound 92, (2S)-2-(4-chlorobenzyl)-4-methyl-1′-(pyridin-2-yl)-[1,4′-bipiperidin]-4-ol 2,2,2-trifluoroacetate] | < 100
CC[C@H]1CN(C2CCN(c3ccccn3)CC2)[C@@H](Cc2ccc(Cl)cc2)CN1C [compound 93, (2S,5S)-2-(4-chlorobenzyl)-5-ethyl-4-methyl-1-(1-(pyridin-2-yl)piperidin-4-yl)piperazine 2,2,2-trifluoroacetate] | 10000 to 100000
CC[C@H]1CN(C2CCN(c3ccccn3)CC2)[C@@H](Cc2ccc(Cl)cc2)CN1CC(C)C [compound 94, (2S,5S)-2-(4-chlorobenzyl)-5-ethyl-4-isobutyl-1-(1-(pyridin-2-yl)piperidin-4-yl)piperazine 2,2,2-trifluoroacetate] | 1000 to 10000
COC(C)(C)CN1C[C@H](Cc2ccc(Cl)cc2)N(C2CCN(c3ccccn3)CC2)C[C@@H]1CC(C)C [compound 100, (2S,5S)-2-(4-chlorobenzyl)-5-isobutyl-4-(2-methoxy-2-methylpropyl)-1-(1-(pyridin-2-yl)piperidin-4-yl)piperazine 2,2,2-trifluoroacetate] | 1000 to 10000
C[C@H]1CN(C2CCN(c3ccccn3)CC2)[C@@H](Cc2ccc(Cl)cc2)CN1CC(=O)N(C)C [compound 101, 2-((2S,5S)-5-(4-chlorobenzyl)-2-methyl-4-(1-(pyridin-2-yl)piperidin-4-yl)piperazin-1-yl)-N,N-dimethylacetamide] | 100 to 1000
C[C@@H](O)CN1C[C@H](Cc2ccc(Cl)cc2)N(C2CCN(c3ccccn3)CC2)C[C@@H]1C [compound 102, (R)-1-((2S,5S)-5-(4-chlorobenzyl)-2-methyl-4-(1-(pyridin-2-yl)piperidin-4-yl)piperazin-1-yl)propan-2-ol 2,2,2-trifluoroacetate] | 100 to 1000
C[C@H]1CN(C2CCN(c3ccccn3)CC2)[C@@H](Cc2ccc(Cl)cc2)CN1CC(=O)NC1CC1 [compound 103, 2-((2S,5S)-5-(4-chlorobenzyl)-2-methyl-4-(1-(pyridin-2-yl)piperidin-4-yl)piperazin-1-yl)-N-cyclopropylacetamide 2,2,2-trifluoroacetate] | 100 to 1000
C[C@H](O)CN1C[C@H](Cc2ccc(Cl)cc2)N(C2CCN(c3ccccn3)CC2)C[C@@H]1C [compound 104, (S)-1-((2S,5S)-5-(4-chlorobenzyl)-2-methyl-4-(1-(pyridin-2-yl)piperidin-4-yl)piperazin-1-yl)propan-2-ol 2,2,2-trifluoroacetate] | < 100
C[C@H](O)[C@H]1CN(C2CCN(c3ccccn3)CC2)[C@@H](Cc2ccc(Cl)cc2)CN1C [compound 105, (S)-1-((2R,5S)-5-(4-chlorobenzyl)-1-methyl-4-(1-(pyridin-2-yl)piperidin-4-yl)piperazin-2-yl)ethan-1-ol 2,2,2-trifluoroacetate] | < 100
CO[C@H](C)CN1C[C@H](Cc2ccc(Cl)cc2)N(C2CCN(c3ccccn3)CC2)C[C@@H]1C [compound 107, (2S,5S)-2-(4-chlorobenzyl)-4-((R)-2-methoxypropyl)-5-methyl-1-(1-(pyridin-2-yl)piperidin-4-yl)piperazine 2,2,2-trifluoroacetate] | 100 to 1000
CO[C@@H]1CCN(C2CCN(c3ccccn3)CC2)[C@@H](Cc2ccc(Cl)cc2)C1 [compound 108, (2S,4R)-2-(4-chlorobenzyl)-4-methoxy-1′-(pyridin-2-yl)-1,4′-bipiperidine 2,2,2-trifluoroacetate] | < 100
CO[C@H]1CCN(C2CCN(c3ccccn3)CC2)[C@@H](Cc2ccc(Cl)cc2)C1 [compound 109, (2S,4S)-2-(4-chlorobenzyl)-4-methoxy-1′-(pyridin-2-yl)-1,4′-bipiperidine 2,2,2-trifluoroacetate] | 100 to 1000
C[C@@H](O)[C@H]1CN(C2CCN(c3ccccn3)CC2)[C@@H](Cc2ccc(Cl)cc2)CN1C [compound 110, (R)-1-((2R,5S)-5-(4-chlorobenzyl)-1-methyl-4-(1-(pyridin-2-yl)piperidin-4-yl)piperazin-2-yl)ethan-1-ol] | < 100
C[C@H]1CN(C2CCN(c3cc(Br)ccn3)CC2)[C@@H](Cc2ccc(Cl)cc2)CO1 [compound 113, (2S,5S)-4-(1-(4-bromopyridin-2-yl)piperidin-4-yl)-5-(4-chlorobenzyl)-2-methylmorpholine 2,2,2-trifluoroacetate] | 100 to 1000
C[C@H]1CN(C2CCN(c3ncccc3C(N)=O)CC2)[C@@H](Cc2ccc(Cl)cc2)CO1 [compound 114, 2-(4-((2S,5S)-5-(4-chlorobenzyl)-2-methylmorpholino)piperidin-1-yl)nicotinamide 2,2,2-trifluoroacetate] | > 100000

Other lines, results leading:

IC50 [nM] | SMILES
> 100000 | C[C@H]1CN(C2CCN(c3cc(Cl)ccc3C#N)CC2)[C@@H](Cc2ccc(Cl)cc2)CO1 [compound 115, 4-chloro-2-(4-((2S,5S)-5-(4-chlorobenzyl)-2-methylmorpholino)piperidin-1-yl)benzonitrile 2,2,2-trifluoroacetate]
> 100000 | C[C@H]1CN(C2CCN(c3nccc4ccccc34)CC2)[C@@H](Cc2ccc(Cl)cc2)CO1 [compound 116, (2S,5S)-5-(4-chlorobenzyl)-4-(1-(isoquinolin-1-yl)piperidin-4-yl)-2-methylmorpholine 2,2,2-trifluoroacetate]
> 100000 | COC(=O)c1cccnc1N1CCC(N2C[C@H](C)OC[C@@H]2Cc2ccc(Cl)cc2)CC1 [compound 117, methyl 2-(4-((2S,5S)-5-(4-chlorobenzyl)-2-methylmorpholino)piperidin-1-yl)nicotinate 2,2,2-trifluoroacetate]
> 100000 | C[C@H]1CN(C2CCN(c3c(F)cccc3C#N)CC2)[C@@H](Cc2ccc(Cl)cc2)CO1 [compound 118, 2-(4-((2S,5S)-5-(4-chlorobenzyl)-2-methylmorpholino)piperidin-1-yl)-3-fluorobenzonitrile 2,2,2-trifluoroacetate]
> 100000 | C[C@H]1CN(C2CCN(c3ccccc3C#N)CC2)[C@@H](Cc2ccc(Cl)cc2)CO1 [compound 119, 2-(4-((2S,5S)-5-(4-chlorobenzyl)-2-methylmorpholino)piperidin-1-yl)benzonitrile 2,2,2-trifluoroacetate]
> 100000 | C[C@H]1CN(C2CCN(c3ncccc3CO)CC2)[C@@H](Cc2ccc(Cl)cc2)CO1 [compound 120, (2-(4-((2S,5S)-5-(4-chlorobenzyl)-2-methylmorpholino)piperidin-1-yl)pyridin-3-yl)methanol 2,2,2-trifluoroacetate]
> 100000 | COC(=O)c1ccnc(F)c1N1CCC(N2C[C@H](C)OC[C@@H]2Cc2ccc(Cl)cc2)CC1 [compound 121, methyl 3-(4-((2S,5S)-5-(4-chlorobenzyl)-2-methylmorpholino)piperidin-1-yl)-2-fluoroisonicotinate]
> 100000 | COC(=O)c1ccnc(N2CCC(N3C[C@H](C)OC[C@@H]3Cc3ccc(Cl)cc3)CC2)c1F [compound 122, methyl 2-(4-((2S,5S)-5-(4-chlorobenzyl)-2-methylmorpholino)piperidin-1-yl)-3-fluoroisonicotinate]
> 100000 | C[C@H]1CN(C2CCN(c3c(F)cccc3F)CC2)[C@@H](Cc2ccc(Cl)cc2)CO1 [compound 123, (2S,5S)-5-(4-chlorobenzyl)-4-(1-(2,6-difluorophenyl)piperidin-4-yl)-2-methylmorpholine 2,2,2-trifluoroacetate]
> 100000 | COC(=O)c1ccnc(N2CCC(N3C[C@H](C)OC[C@@H]3Cc3ccc(Cl)cc3)CC2)c1 [compound 124, methyl 2-(4-((2S,5S)-5-(4-chlorobenzyl)-2-methylmorpholino)piperidin-1-yl)isonicotinate]
> 100000 | C[C@H]1CN(C2CCN(c3cc(C(=O)O)ccn3)CC2)[C@@H](Cc2ccc(Cl)cc2)CO1 [compound 125, 2-(4-((2S,5S)-5-(4-chlorobenzyl)-2-methylmorpholino)piperidin-1-yl)isonicotinic acid 2,2,2-trifluoroacetate]
> 100000 | C[C@H]1CN(C2CCN(c3ccccc3F)CC2)[C@@H](Cc2ccc(Cl)cc2)CO1 [compound 126, (2S,5S)-5-(4-chlorobenzyl)-4-(1-(2-fluorophenyl)piperidin-4-yl)-2-methylmorpholine 2,2,2-trifluoroacetate]
> 100000 | C[C@H]1CN(C2CCN(c3cccc(F)c3)CC2)[C@@H](Cc2ccc(Cl)cc2)CO1 [compound 127, (2S,5S)-5-(4-chlorobenzyl)-4-(1-(3-fluorophenyl)piperidin-4-yl)-2-methylmorpholine 2,2,2-trifluoroacetate]
> 100000 | C[C@H]1CN(C2CCN(c3nccc(C(=O)O)c3F)CC2)[C@@H](Cc2ccc(Cl)cc2)CO1 [compound 128, 2-(4-((2S,5S)-5-(4-chlorobenzyl)-2-methylmorpholino)piperidin-1-yl)-3-fluoroisonicotinic acid 2,2,2-trifluoroacetate]
> 100000 | C[C@H]1CN(C2CCN(c3c(C(=O)O)ccnc3F)CC2)[C@@H](Cc2ccc(Cl)cc2)CO1 [compound 129, 3-(4-((2S,5S)-5-(4-chlorobenzyl)-2-methylmorpholino)piperidin-1-yl)-2-fluoroisonicotinic acid]
> 100000 | C[C@H]1CN(C2CCN(c3cc(CO)ccn3)CC2)[C@@H](Cc2ccc(Cl)cc2)CO1 [compound 130, (2-(4-((2S,5S)-5-(4-chlorobenzyl)-2-methylmorpholino)piperidin-1-yl)pyridin-4-yl)methanol 2,2,2-trifluoroacetate]
